# Experimental data from patent US20240350497A1, “COMBINATION THERAPY FOR THE TREATMENT OF PAN-KRAS MUTATED CANCERS” (Tiziana Life Sciences PLC, priority 2021, published 2024).
# Like-named read-outs stand apart in the source and are kept apart here.
# Key:
# [1] = tested on: cell lines harboring KRAS mutations; experiment: sensitivity of KRAS mutant cell lines to CDK inhibitor in vitro; format: cell-based
# Source text: (§1) FIG. 7A and FIG. 7B are plots showing dose-response curves of colorectal non-isogenic cells containing either wild type (WT) or mutated KRAS in response to CDK inhibitors AT7519 (FIG. 7A) or dinaciclib (FIG. 7B). The cyclin-dependent kinase, CDK1, is a synthetic lethal target for KRAS mutant tumors. KRAS mutant cells show increased activity of CDK1 (FIGS. 6A-6D). The inhibition of CDK1 causes a reduction in the S-phase of the cell cycle progression decreasing cell proliferation in KRAS mutant cells. This decreased cell cycle activity is observed by the modulation of Rb, a master control of the G1/S checkpoint. Through a series of experiments, including using parallel siRNA screens in KRAS mutant and wild type colorectal isogenic tumor cells and subsequently validated in a genetically diverse panel of 26 colorectal and pancreatic tumor cell models, the KRAS/CDK1 interaction has a synthetic lethal effect on cancer cells.
# [2] = tested on: KRAS mutant tumor xenografts; experiment: KRAS mutant tumor xenografts treated with CDK inhibitor in vivo; set-up: species or system mice
# Source text: FIG. 8A is a plot showing the change in tumor volume of KRAS mutant tumor xenografts in mice treated with vehicle control (DMSO) or the CDK inhibitor AZD5438.
# FIG. 8B is a plot showing the percent survival of mice harboring KRAS mutant tumor xenografts following treatment with either vehicle control (DMSO) or the CDK inhibitor AZD5438. FIG. 8C is a chart showing the tumor weight in mice harboring KRAS mutant tumor xenografts following treatment with either vehicle control (DMSO) or the CDK inhibitor AZD5438. FIG. 8D is a series of images showing tumor shrinkage in mice harboring KRAS mutant tumor xenografts following treatment with the CDK inhibitor AZD5438.
# as §1, with “The” for “FIG. 7A and FIG. 7B are plots showing dose-response curves of colorectal non-isogenic cells containing either wild type (WT) or mutated KRAS in response to CDK inhibitors AT7519 (FIG. 7A) or dinaciclib (FIG. 7B). The”
# [3] = tested on: HCT-116 human colon carcinoma; experiment: milciclib in combination with 5-FU, HCT-116 human colon carcinoma xenograft; conditions: for animal deaths: single agents at the tested doses
# Procedure: (§2) The efficacy of milciclib was tested in several human xenografts implanted in the hind flank region of athymic mice (FIG. 18). Models in nude mice included A2780 ovarian cancer, DU-145 prostatic cancer, BX-PC3 pancreatic cancer, A549 non-small cell lung cancer, MDA-MB-231 breast cancer, MIA-PACA-2 pancreatic cancer, A375 melanoma, CAPAN-1 pancreatic cancer, and HCT-116 colon cancer. The MIA-PACA-2 and CAPAN-1 pancreatic cancer cell lines both express KRAS mutants. The MIA-PACA-2 and CAPAN-1 cell lines tested with milciclib harbor the KRAS mutants, G12C and G12V, respectively. […] The HCT-116 colon cancer cell line expresses the G13D KRAS mutant, making up of 15.5% of CRC KRAS mutants Following implantation, tumors were allowed to establish to a size of 100 mm3 prior to oral administration of milciclib. In all these experiments, a daily bid treatment was administered for a maximum of 10 days.
# Activity of milciclib has been tested in combination with 5-FU on HCT-116 human colon carcinoma cells (FIG. 10A). The HCT-116 cell line expresses the KRAS G13D mutant.
# [4] = tested on: BX-PC3 human pancreatic carcinoma; experiment: milciclib in combination with gemcitabine, BX-PC3 human pancreatic carcinoma, first experiment; conditions: for animal deaths: single agents at the tested doses
# Procedure: A combination therapy of milciclib and the DNA damaging agent, gemcitabine, was treated on BX-PC3 human pancreatic carcinoma (FIG. 12A).
# [5] = tested on: BX-PC3 human pancreatic carcinoma; experiment: milciclib in combination with gemcitabine, BX-PC3 human pancreatic carcinoma, second experiment; conditions: for animal deaths: single agents at the tested doses
# Procedure: A second experiment was conducted of milciclib in combination with gemcitabine on BX-PC3 human pancreatic carcinoma (FIG. 12B and FIG. 12C).
# NSCLC = conditions: single agent, Phase II studies; cited from earlier work
# [6] = tested on: HCT-116 human colon carcinoma; experiment: milciclib in combination with irinotecan, HCT-116 human colon carcinoma xenograft model; conditions: for animal deaths: single agents at the tested doses
# Procedure: as §2
# Topoisomerase enzymes control the manipulation of the structure of DNA necessary for replication.
# [7] = tested on: A2780 human ovarian carcinoma; experiment: A2780 human ovarian carcinoma xenografts, oral milciclib; format: in vivo, mice
# Procedure: Pathogenic KRAS mutations were present in 606 patients of 7,325 epithelial ovarian cancers from the Caris Database, about 8.3% of the total. The frequency of KRAS mutation by subtype occurred in the following: 36.4% G12D, 35.8% G12V, and 8.4% G12C. A dose-dependent inhibition of tumor growth was measured in mice harboring A2780 human ovarian carcinoma xenografts administered with daily oral administration of milciclib.
# [8] = tested on: MIA-PACA-2 pancreatic cancer (KRAS G12C); experiment: human xenograft efficacy, MIA-PACA-2; format: in vivo, athymic mice; conditions: oral, daily bid treatment for a maximum of 10 days
# [9] = tested on: CAPAN-1 pancreatic cancer (KRAS G12V); experiment: human xenograft efficacy, CAPAN-1; format: in vivo, athymic mice; conditions: oral, daily bid treatment for a maximum of 10 days
# [10] = tested on: KRAS G12D LA2 pulmonary cancerous lesions; experiment: transgenic mouse model KRAS G12D LA2, MRI; conditions: in vivo
# Procedure: Milciclib was tested in a transgenic mouse model KRAS G12D LA2 that develops pulmonary cancerous lesions reminiscent of human lung adenocarcinomas. Milciclib was tested to follow longitudinal disease progression and evaluate therapeutic efficacy by using magnetic resonance imaging (MRI) and positron emission tomography (PET). […] The MRI methodology used in this study allow longitudinal monitoring of tumor development and response in a single animal, and furthermore, allows for more clinically relevant study design and increases its statistical relevance.
# [11] = tested on: MDA-MB-231 human breast cancer
# Procedure: FIG. 15A is a series of plots showing change in tumor volume in mice bearing MDA-MB-231 human breast cancer tumor xenografts following treatment with 40 mg/kg milciclib (PHA-848125) (n=8) or vehicle control (5% glucose solution) (n=8) via oral gavage twice daily on a 5-days-on/2-days-off schedule for four weeks. FIG. 15B is a series of images and a chart showing immunohistochemistry staining of Ki67 and mitotic nucleus counts, and corresponding quantification in tumor tissue collected 48 hours after the last treatment with milciclib (PHA-848125) or vehicle control for 3 weeks.
# MDA-MB-231 cells = MDA-MB-231 cells exposed to milciclib and DNA damaging agent, alone or in combination; format: cell-based, human; conditions: TNBC cells
# Procedure: The use of milciclib in combination with five chemotherapeutic drugs already in use was tested for the treatment of TNBC including paclitaxel, doxorubicin, 5-FU, cisplatin, and cyclophosphamide. Potential synergistic effects with milciclib by exposing MDA-MB-231 cells to serial dilutions of milciclib and each DNA damaging agent, alone or in combination, in clinically relevant concentrations (FIG. 16A). […] Tumor proliferation was reduced by nearly 5 times for the combination treatment of milciclib and cisplatin compared to the vehicle treated group, assessed by Ki67 staining.
# [12] = tested on: N-592 human small cell carcinoma; conditions: for animal deaths: single agents at the tested doses
# Procedure: Milciclib was tested orally at the doses of 20 and 30 mg/kg twice a day for 17 consecutive days.
# [13] = tested on: advanced solid malignancies; conditions: oral, phase I; cited from earlier work
# [14] = milciclib 20 mg/kg orally twice a day for 9 consecutive days
# [15] = milciclib 40 mg/kg orally twice a day for 9 consecutive days
structure (smiles),measurement,setting,value
O=C(NC1CCNCC1)c1[nH]ncc1NC(=O)c1c(Cl)cccc1Cl [AT519],sensitivity of KRAS mutant versus wild type cells,[1],increased sensitivity
Cc1ncc(-c2ccnc(Nc3ccc(S(C)(=O)=O)cc3)n2)n1C(C)C [AZD5438],sensitivity of KRAS mutant tumors,[2],increased sensitivity
"O=c1[nH]cc(F)c(=O)[nH]1 [Compound 5-FU, 5-fluorouracil, reference compound]",TGI,[3]; 5-FU 50 mg/kg IV q7dx2,33%
same,animal deaths,[3],No animal died
"Nc1ccn([C@@H]2O[C@H](CO)[C@@H](O)C2(F)F)c(=O)n1 [gemcitabine, reference compound]",TGI,[4]; gemcitabine 80 mg/kg IV,61%
same,animal deaths,[4],No animal died
same,TGI,[5]; gemcitabine 80 mg/kg IV q4dx3,70%
same,TGI,[5]; gemcitabine 80 mg/kg IV q7dx3,62%
same,animal deaths,[5],No animal died
same,median survival,NSCLC,9 months
same,objective response rate,NSCLC,20-25%
"CCc1c2c(nc3ccc(OC(=O)N4CCC(N5CCCCC5)CC4)cc13)-c1cc3c(c(=O)n1C2)COC(=O)[C@]3(O)CC [irinotecan, reference compound]",TGI,[6]; irinotecan 45 mg/kg IV q4dx3,84%
same,animal deaths,[6],No animal died
"CNC(=O)c1nn(C)c2c1C(C)(C)Cc1cnc(Nc3ccc(N4CCN(C)CC4)cc3)nc1-2 [milciclib, N,1,4,4-tetramethyl-8-((4-(4-methylpiperazin-1-yl)phenyl)amino)-4,5-dihydro-1H-pyrazolo[4,3-h]quinazoline-3-carboxamide]",TGI,[3]; milciclib 20 mg/kg orally twice a day for 12 days,42%
same,TGI,[3]; milciclib 30 mg/kg orally twice a day for 12 days,64%
same,animal deaths,[3],No animal died
same,TGI,[6]; milciclib 20 mg/Kg orally twice a day for 9 days,38%
same,TGI,[6]; milciclib 30 mg/Kg orally twice a day for 9 days,60%
same,animal deaths,[6],No animal died
same,TGI,[4]; [14],61%
same,TGI,[4]; [15],79%
same,animal deaths,[4],No animal died
same,TGI,[5]; [14],74%
same,TGI,[5]; milciclib 20 mg/kg twice a day for 15 days,80%
same,TGI,[5]; [15],88%
same,animal deaths,[5],No animal died
same,tumor growth inhibition (TGI),[7]; 20 mg/kg bid,53%
same,tumor growth inhibition (TGI),[7]; 30 mg/kg bid,76%
same,tumor growth inhibition (TGI),[7]; 40 mg/kg bid,91%
same,maximal inhibition,[8],70%
same,maximal inhibition,[9],65%
same,"tumor growth inhibition at the end of treatment, measured by MRI",[10],significant tumor growth inhibition
same,tumor growth,"[11]; 40 mg/kg oral gavage twice daily, 5-days-on/2-days-off",arrests tumor growth
same,tolerability,"[11]; mouse, in vivo",well tolerated
same,"interaction with cisplatin, cisplatin-induced apoptosis",MDA-MB-231 cells,acts synergistically
same,TGI,[12]; milciclib 20 mg/kg orally twice a day for 17 consecutive days,34%
same,TGI,[12]; milciclib 30 mg/kg orally twice a day for 17 consecutive days,56%
same,animal deaths,[12],No animal died
same,RP2D,[13],150 mg/day
same,tolerability,[13],well-tolerated
"CC[C@@]1(O)C(=O)OCc2c1cc1n(c2=O)Cc2cc3c(CN(C)C)c(O)ccc3nc2-1 [topotecan, reference compound]",animal deaths,[12],No animal died
same,TGI,[12]; topotecan 6 mg/kg IV q4dx5,71%
